Data: the supplement of paper PMC10307832

How the values were obtained:
Assay in all cases: relative viability (nuclei count vs DMSO), 5 days (fraction); higher = more cells survive
Elesclomol + Lapatinib = compound: CN(NC(=O)CC(=O)NN(C)C(=S)c1ccccc1)C(=S)c1ccccc1 [Elesclomol] + CS(=O)(=O)CCNCc1ccc(-c2ccc3ncnc(Nc4ccc(OCc5cccc(F)c5)c(Cl)c4)c3c2)o1 [Lapatinib] (partner 2 µM)
How it was run: (§1)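 Relative viability is defined as nuclei in treated wells over nuclei in vehicle wells. Duplicate plates were run and medians reported. Lung cancer cell lines in 1536-well plates were dosed by pin tool one day after seeding, with one drug or with a fixed anchor-drug dose plus five library-drug doses (not always all listed) in √10 steps, and nuclei were counted after 5 days.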

Elesclomol + Trametinib = compound: CN(NC(=O)CC(=O)NN(C)C(=S)c1ccccc1)C(=S)c1ccccc1 [Elesclomol] + CC(=O)Nc1cccc(-n2c(=O)n(C3CC3)c(=O)c3c(Nc4ccc(I)cc4F)n(C)c(=O)c(C)c32)c1 [Trametinib] (partner 0.02 µM)
How it was run: as §1

Elesclomol + Foretinib = compound: CN(NC(=O)CC(=O)NN(C)C(=S)c1ccccc1)C(=S)c1ccccc1 [Elesclomol] + COc1cc2c(Oc3ccc(NC(=O)C4(C(=O)Nc5ccc(F)cc5)CC4)cc3F)ccnc2cc1OCCCN1CCOCC1 [Foretinib] (partner 0.25 µM)
How it was run: as §1

Elesclomol + Dasatinib = compound: CN(NC(=O)CC(=O)NN(C)C(=S)c1ccccc1)C(=S)c1ccccc1 [Elesclomol] + Cc1nc(Nc2ncc(C(=O)Nc3c(C)cccc3Cl)s2)cc(N2CCN(CCO)CC2)n1 [Dasatinib] (partner 0.075 µM)
How it was run: as §1

Elesclomol + Navitoclax = compound: CN(NC(=O)CC(=O)NN(C)C(=S)c1ccccc1)C(=S)c1ccccc1 [Elesclomol] + CC1(C)CCC(c2ccc(Cl)cc2)=C(CN2CCN(c3ccc(C(=O)NS(=O)(=O)c4ccc(N[C@H](CCN5CCOCC5)CSc5ccccc5)c(S(=O)(=O)C(F)(F)F)c4)cc3)CC2)C1 [Navitoclax] (partner 0.5 µM)
How it was run: as §1

Cell Line	relative viability (Elesclomol + Lapatinib; first compound 0.003162 µM)	relative viability (Elesclomol + Lapatinib; first compound 0.01 µM)	relative viability (Elesclomol + Lapatinib; first compound 0.03162 µM)	relative viability (Elesclomol + Lapatinib; first compound 0.1 µM)	relative viability (Elesclomol + Trametinib; first compound 0.003162 µM)	relative viability (Elesclomol + Trametinib; first compound 0.01 µM)	relative viability (Elesclomol + Trametinib; first compound 0.03162 µM)	relative viability (Elesclomol + Trametinib; first compound 0.1 µM)	relative viability (Elesclomol + Foretinib; first compound 0.003162 µM)	relative viability (Elesclomol + Foretinib; first compound 0.01 µM)	relative viability (Elesclomol + Foretinib; first compound 0.03162 µM)	relative viability (Elesclomol + Foretinib; first compound 0.1 µM)	relative viability (Elesclomol + Dasatinib; first compound 0.003162 µM)	relative viability (Elesclomol + Dasatinib; first compound 0.01 µM)	relative viability (Elesclomol + Dasatinib; first compound 0.03162 µM)	relative viability (Elesclomol + Dasatinib; first compound 0.1 µM)	relative viability (Elesclomol + Navitoclax; first compound 0.003162 µM)	relative viability (Elesclomol + Navitoclax; first compound 0.01 µM)	relative viability (Elesclomol + Navitoclax; first compound 0.03162 µM)	relative viability (Elesclomol + Navitoclax; first compound 0.1 µM)
NCI-H520	0.91	0.666	0.373	0.0913	0.789	0.65	0.301	0.137	0.757	0.771	0.251	0.111	0.166	0.158	0.138	0.0789	1.08	0.939	0.587	0.162
NCI-H596	1.04	1.11	1.03	0.381	0.798	0.865	0.368	0.237	0.918	1.03	0.764	0.158	0.606	0.545	0.575	0.21	0.912	0.941	0.877	0.189
NCI-H647	1.08	0.765	0.267	0.0231	0.553	0.347	0.235	0.148	1.05	0.973	0.359	0.0921	0.172	0.142	0.0544	0.0326	1.05	0.665	0.191	0.0372
NCI-H727	0.591	0.365	0.165	0.0475	0.412	0.362	0.394	0.376	0.745	0.611	0.526	0.317	0.319	0.242	0.128	0.0864	0.368	0.213	0.109	0.0643
NCI-H838	0.984	0.838	0.683	0.555	0.56	0.494	0.518	0.216	1.07	0.854	0.66	0.419	0.287	0.296	0.224	0.177	1.15	1.06	0.962	0.739
NCI-H1355	1.05	0.786	0.657	0.222	0.434	0.408	0.356	0.159	0.951	0.894	0.514	0.207	0.736	0.639	0.396	0.178	1.03	0.705	0.469	0.14
NCI-H1395	1.01	0.368	0.289	0.304	1.01	0.626	0.294	0.215	1.06	0.665	0.332	0.324	0.387	0.304	0.266	0.22	1.09	0.475	0.286	0.469
NCI-H1437	0.637	0.45	0.346	0.265	0.504	0.424	0.339	0.275	1.11	0.79	0.609	0.464	0.246	0.18	0.116	0.128	1.02	0.67	0.474	0.455
